PubChem BioAssay (NCI)
Where “and” joins values, the source holds several entries; their conditions need not be identical. Equal values may be shown once.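 Each compound was tested at five concentrations against cells in 96-well plates for 48 hours. At the GI50, growth is halved. At the TGI there is no net growth.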

Legend:
Experiment in all cases: growth of human tumour cells (NCI), 48 h
EKVX NSCLC = tested on: EKVX NSCLC
HOP-62 NSCLC = tested on: HOP-62 NSCLC
RPMI-8226 leukemia = tested on: RPMI-8226 leukemia
RXF 393 renal = tested on: RXF 393 renal
HCT-116 colon = tested on: HCT-116 colon
SK-MEL-28 melanoma = tested on: SK-MEL-28 melanoma
UACC-62 melanoma = tested on: UACC-62 melanoma
HCT-15 colon = tested on: HCT-15 colon
SK-MEL-5 melanoma = tested on: SK-MEL-5 melanoma
HL-60(TB) leukemia = tested on: HL-60(TB) leukemia

SMILES	TGI (EKVX NSCLC)	TGI (HOP-62 NSCLC)	TGI (RPMI-8226 leukemia)	TGI (RXF 393 renal)	TGI (HCT-116 colon)	TGI (SK-MEL-28 melanoma)	TGI (UACC-62 melanoma)	TGI (HCT-15 colon)	TGI (SK-MEL-5 melanoma)	TGI (HL-60(TB) leukemia)	GI50 (EKVX NSCLC)	GI50 (HOP-62 NSCLC)	GI50 (RPMI-8226 leukemia)	GI50 (RXF 393 renal)	GI50 (HCT-116 colon)	GI50 (SK-MEL-28 melanoma)	GI50 (UACC-62 melanoma)	GI50 (HCT-15 colon)	GI50 (SK-MEL-5 melanoma)	GI50 (HL-60(TB) leukemia)
CN/N=C(\C)C(CN(C)C)C(c1ccccc1)c1c(O)c2ccccc2oc1=O (centres undefined)	> 100 µM	> 100 µM	> 100 µM	> 100 µM	> 100 µM	> 100 µM	> 100 µM	> 100 µM	> 100 µM	> 100 µM	–	–	–	–	–	–	–	–	–	–
O=C1C=CC(=O)c2cc(Sc3ccccc3)c(=O)ccc21	33.2 µM	47.3 µM	14.9 µM	25 µM	42.6 µM	35.1 µM	30.4 µM	33.1 µM	31.5 µM	1.79 µM	–	–	–	–	–	–	–	–	–	–
O=C1/C(=C\c2ccccn2)c2ccccc2N1c1c(Cl)cccc1Cl	17.8 µM	5.04 µM	> 22.4 µM	2.73 µM	3.32 µM	4.03 µM	3.68 µM	5.3 µM	3.03 µM	> 29.6 µM	3.47 µM	2.07 µM	2.8 µM	1.4 µM	1.7 µM	1.84 µM	1.62 µM	2.11 µM	1.61 µM	3.75 µM
C[N+](C)(C)CC(=O)N/N=C(\C(=O)NC1=C(Cl)C(=O)c2ccccc2C1=O)C(C#N)c1csc(-c2ccc([N+](=O)[O-])cc2)n1 (centres undefined)	> 100 µM	> 100 µM	> 100 µM	> 100 µM	> 100 µM	> 100 µM	> 100 µM	> 100 µM	> 100 µM	> 100 µM	–	–	–	–	–	–	–	–	–	–
Cc1sc2c(c1C)C(c1ccc(Cl)cc1)=N[C@@H](CC(=O)OC(C)(C)C)c1nnc(C)n1-2	20.5 µM and 18.2 µM	17.1 µM and 16.4 µM	2.92 µM and 0.477 µM	19 µM and 9.28 µM	16.4 µM and 15.4 µM	20.2 µM and 15.2 µM	20.3 µM and 15.8 µM	13.4 µM and 13.7 µM	4.27 µM and 14.2 µM	–	3.17 µM and 1.18 µM	0.253 µM and 0.121 µM	0.142 µM and 0.0397 µM	1.95 µM and 0.737 µM	0.44 µM and 0.311 µM	1.98 µM and 0.397 µM	0.107 µM and 0.0685 µM	0.308 µM and 0.157 µM	0.0966 µM and 0.337 µM	0.118 µM and 0.0301 µM
CCc1cc(CCC(=O)Nc2c(C)cccc2C)[nH]n1	> 100 µM	> 100 µM	> 100 µM	> 100 µM	> 100 µM	> 100 µM	> 100 µM	> 100 µM	> 100 µM	> 100 µM	–	–	–	–	–	–	–	–	–	–
COC(=O)Cc1ccc(Oc2cnc3cc(F)c(F)cc3n2)cc1	> 100 µM	> 100 µM	81 µM	> 100 µM	> 100 µM	> 100 µM	> 100 µM	> 100 µM	> 100 µM	> 100 µM	94.3 µM	> 100 µM	23.2 µM	> 100 µM	26 µM	> 100 µM	> 100 µM	> 100 µM	32 µM	42.5 µM
NC(=O)c1cccc(Nc2nccc(Nc3cccc4[nH]ncc34)n2)c1	> 25 µM	> 25 µM	> 25 µM	16.3 µM	> 25 µM	> 25 µM	> 25 µM	> 25 µM	> 25 µM	> 25 µM	> 25 µM	9.28 µM	> 25 µM	4.43 µM	8.58 µM	10.1 µM	7.02 µM	> 25 µM	6.96 µM	10.5 µM
COc1cccc(C2c3cc4c(cc3OC(N3CCCC3)C2C)OCO4)c1O (centres undefined)	> 84.9 µM	45.7 µM	27.9 µM	17.4 µM	35 µM	81.1 µM	43.7 µM	38.4 µM	16.3 µM	31.5 µM	–	–	–	–	–	–	–	–	–	–
COC(C(=O)NCCCCNC(=O)C(OC)c1ccccc1)c1ccccc1 (centres undefined)	> 100 µM	> 100 µM	> 100 µM	> 100 µM	> 100 µM	> 100 µM	> 100 µM	> 100 µM	> 100 µM	> 100 µM	–	–	–	–	–	–	–	–	–	–
CN(Cc1cc(Cl)cc(Cl)c1)CC(C(=O)c1ccccc1)c1ccccc1 (centres undefined)	57.6 µM	71.3 µM	> 100 µM	> 25.6 µM	2.36 µM	9.8 µM	14.3 µM	1.84 µM	29.9 µM	47.4 µM	–	–	–	–	–	–	–	–	–	–
CN(C)c1nc(=Nc2cccc(Cl)c2)ss1	56.5 µM	> 100 µM	17.5 µM	31.7 µM	24.2 µM	25.8 µM	23.4 µM	27.9 µM	> 100 µM	23 µM	–	–	–	–	–	–	–	–	–	–
